Among the test systems are NCI-H23; NCI-H522; HOP-92; KM-20L2; SK-MEL-5; UACC-257; OVCAR-5; EKVX; SN12C; SF-295; SR; MDA-MB-435; BT-549; SNB-19; HOP-62; NCI-H226; HCC 2998; CAKI-1; OVCAR-4; SF-539.
What all share (assay): NCI-60 cell line screen, 48 h

SMILES strings stand for the structures.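 Growth conditions: 96-well plates. Treatment: test compound, 48 hours, 5 concentrations. Analysis: linear interpolation between bracketing concentrations; unreached endpoints set to highest concentration. Here, GI50 denotes the concentration required for 50% inhibition of growth.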 Activity calls are given as the source filed them. Cut-off read from the data, not from the text of the source: active = GI50 up to about 1.1 µM and inactive = higher. A value given as a limit tells only on which side of the number the result lay.

`CC1=C(N2CC2)C(=O)c2nc3n(c2C1=O)CCC3OC(=O)CCl` (stereo not given): the GI50 is 0.0358 µM (active) in the assay with NCI-H23; 0.0274 µM (active) in the assay with NCI-H522; 3.3 µM (inactive) with HOP-92; 0.131 µM (active) in the assay on KM-20L2; 0.0428 µM (active) in the assay on SK-MEL-5; 0.0883 µM (active) in the assay with UACC-257. Also, the GI50 in the assay with OVCAR-5 was 0.0692 µM (active); with EKVX, 0.217 µM (active); in the assay on SN12C, 0.0573 µM (active); with SF-295 it was 0.0373 µM (active); in the assay with SR it was 0.225 µM (active); in the assay on MDA-MB-435, 0.0298 µM (active). The GI50 was 0.0152 µM (active) in the assay with BT-549; 0.0538 µM (active) with SNB-19; 0.0532 µM (active) in the assay on HOP-62; 0.064 µM (active) in the assay with NCI-H226; 0.0395 µM (active) in the assay with HCC 2998; 0.0615 µM (active) in the assay with CAKI-1. Also, the results for the GI50 with OVCAR-4 and in the assay on SF-539 were 0.0719 µM (active) and 0.056 µM (active), respectively.

With `CO[C@H]1Nc2c(ccc(C)c2O)C(=O)N2C=C(/C=C/C(N)=O)C[C@@H]12` [ANTHRAMYCIN METHYL ETHER], the GI50 in the assay with NCI-H23 was 0.0327 µM (active); with NCI-H522, 0.0222 µM (active); in the assay with HOP-92 it was 0.0258 µM (active); with KM-20L2, 0.184 µM (active); in the assay with SK-MEL-5, 0.0168 µM (active); with UACC-257, 0.0596 µM (active). Also, the GI50 in the assay with OVCAR-5 was 0.0541 µM (active); in the assay with EKVX it was 0.0462 µM (active); in the assay on SN12C, 0.0221 µM (active); in the assay on SF-295 it was 0.0199 µM (active); in the assay on SR, < 0.0234 µM (active); in the assay with MDA-MB-435 it was 0.014 µM (active). Further, the GI50 was 0.0143 µM (active) with BT-549; < 0.0179 µM (active) with SNB-19; 0.0186 µM (active) in the assay on HOP-62; 0.128 µM (active) in the assay on NCI-H226; 0.0436 µM (active) in the assay with HCC 2998; 0.047 µM (active) in the assay with CAKI-1. Besides, the GI50 was 0.052 µM (active) in the assay on OVCAR-4 and 0.0185 µM (active) with SF-539.

As for `CCOc1ccccc1NC(=O)C(C#N)C1=C(Cl)C(=O)c2ccccc2C1=O` (stereo not given), the GI50 with NCI-H23 is 2.14 µM (inactive); in the assay with NCI-H522, 2.09 µM (inactive); in the assay on HOP-92, 2.05 µM (inactive); with KM-20L2 it was 1.93 µM (inactive); with SK-MEL-5, 1.5 µM (inactive); in the assay with UACC-257, 1.06 µM (active). Also, the GI50 in the assay on OVCAR-5 was 2.14 µM (inactive); with EKVX it was 1.5 µM (inactive); in the assay with SN12C it was 1.79 µM (inactive); with SF-295 it was 1.72 µM (inactive); in the assay with SR, 1.33 µM (inactive); with SNB-19, 2.13 µM (inactive). For the same compound, the GI50 was 6.04 µM (inactive) in the assay with HOP-62; 2.13 µM (inactive) in the assay with NCI-H226; 1.75 µM (inactive) in the assay on HCC 2998; 2.76 µM (inactive) in the assay with CAKI-1; 1.94 µM (inactive) with OVCAR-4; 2.12 µM (inactive) in the assay on SF-539.

For `O=C1c2c(c(-c3ccccc3)c(-c3ccccc3)c(-c3ccccc3)c2-c2ccccc2)C(=O)N1c1cccc(Br)c1`, the GI50 in the assay on NCI-H23, in the assay with NCI-H522, in the assay on HOP-92, in the assay with KM-20L2, in the assay on SK-MEL-5 and in the assay with UACC-257 was > 100 µM (inactive) throughout. The GI50 in the assay on OVCAR-5, with EKVX, with SN12C, with SF-295, with SR and in the assay on SNB-19 was > 100 µM (inactive) each time. Besides, the GI50 with HOP-62, in the assay on NCI-H226, in the assay with HCC 2998, with CAKI-1, with OVCAR-4 and with SF-539 was > 100 µM (inactive) throughout.

Regarding `CCCCC(=O)OCC(=O)[C@]1(O)Cc2c(O)c3c(c(O)c2[C@@H](OC2CC(NC(=O)C(F)(F)F)C(O)C(C)O2)C1)C(=O)c1c(OC)cccc1C3=O` (stereo not given in full), the GI50 in the assay with NCI-H23 is 0.351 µM (active); with NCI-H522 it was 0.736 µM (active); with HOP-92, 0.376 µM (active); with KM-20L2, 2.19 µM (inactive); in the assay with SK-MEL-5, 0.327 µM (active); in the assay with UACC-257 it was 1.3 µM (inactive). The GI50 in the assay on OVCAR-5 was 1.52 µM (inactive); in the assay on EKVX it was 2.43 µM (inactive); in the assay with SN12C it was 0.29 µM (active); in the assay on SF-295, 0.308 µM (active); in the assay with SR it was 0.0304 µM (active); in the assay with MDA-MB-435, 2.07 µM (inactive). Also, the GI50 in the assay on BT-549 was 2.11 µM (inactive); in the assay with SNB-19, 0.348 µM (active); in the assay with HOP-62, 0.183 µM (active); in the assay on NCI-H226, 0.0401 µM (active); with HCC 2998, 1.3 µM (inactive); in the assay on CAKI-1 it was 0.203 µM (active). Further, the values for the GI50 in the assay on OVCAR-4 and in the assay with SF-539 were 2.08 µM (inactive) and 0.387 µM (active), respectively.

On to `CC1CN(c2ccc(Cl)cc2)CC(C)OC(=O)O1` (stereo not given), for which the GI50 in the assay with NCI-H23, in the assay on NCI-H522, in the assay with HOP-92, in the assay with KM-20L2, in the assay on SK-MEL-5 and in the assay on UACC-257 was > 100 µM (inactive) throughout. In addition, the GI50 in the assay on OVCAR-5, in the assay with EKVX, with SN12C, in the assay on SF-295, in the assay on SR and in the assay with SNB-19 was > 100 µM (inactive) in each case. For the same compound, the GI50 in the assay with HOP-62, with NCI-H226, in the assay on HCC 2998, in the assay with CAKI-1, in the assay on OVCAR-4 and in the assay on SF-539 was > 100 µM (inactive) each time.

With `CCOc1ccc(NCc2cc(OC)c(OC)c(OC)c2)cc1`, the GI50 with NCI-H23 was 1.96 µM (inactive); in the assay with NCI-H522 it was 0.452 µM (active); in the assay on HOP-92 it was 6.04 µM (inactive); in the assay with KM-20L2 it was 0.475 µM (active); in the assay on SK-MEL-5 it was 0.578 µM (active); in the assay with UACC-257 it was 19.7 µM (inactive). Also, the GI50 is 17.5 µM (inactive) with EKVX; 0.417 µM (active) in the assay on SF-295; 0.288 µM (active) in the assay with SR; 0.125 µM (active) with BT-549; 2.88 µM (inactive) with SNB-19; 0.675 µM (active) in the assay with HOP-62. In addition, the GI50 in the assay with NCI-H226 was 11.3 µM (inactive); with HCC 2998, 0.9 µM (active); with OVCAR-4, 40.1 µM (inactive); with SF-539, 0.562 µM (active).

The values are drawn from ChEMBL document CHEMBL1201862, “PubChem BioAssay data set” (2004).
